This is an account of results in ChEMBL document CHEMBL1201862, “PubChem BioAssay data set” (2004).

What all share (assay): growth of human tumour cells (NCI), 48 h
The test system of assay [1] is OVCAR-5.
The subject of assay [2] is 786-0.
Assay [3] has as its system SF-295.
The test system of assay [4] is NCI-H23.
For assay [5], the system named is CAKI-1.
Assay [6] deals with ACHN.
For assay [7], the system named is NCI-H226.
Assay [8] concerns OVCAR-4.
The subject of assay [9] is KM12.
Assay [10] relates to TK-10.
In assay [11] the test system is MDA-MB-231.
Assay [12] has as its system SN12C.
In assay [13] the test system is RXF 393.
In assay [14] the test system is HOP-92.
Assay [15] has as its system MDA-N.
Assay [16] has as its system PC-3.
Assay [17] deals with SK-MEL-2.
In assay [18] the test system is RPMI-8226.
Assay [19] deals with IGROV-1.

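These data come from cells grown in 96-well plates and exposed to compound for 48 hours at five concentrations. GI50: concentration for 50% inhibition of growth.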 Activity calls are given as the source filed them. Rule as the data show it: active = GI50 up to about 1.1 µM and inactive = higher.

Regarding `C/C=C/C[C@@H](C)C(=O)C1C(=O)N[C@@H](C(C)C)C(=O)N(C)CC(=O)N(C)[C@@H](CC(C)C)C(=O)N[C@@H](C(C)C)C(=O)N(C)[C@@H](CC(C)C)C(=O)N[C@@H](C)C(=O)N[C@@H](C)C(=O)N(C)[C@@H](CC(C)C)C(=O)N(C)[C@@H](CC(C)C)C(=O)N(C)[C@@H](C(C)C)C(=O)N1C` (some centres not stated), the GI50 is 7.87 µM (inactive) in [1]; 7.76 µM (inactive) in assay [2]; 7.28 µM (inactive) in assay [3]; 7.83 µM (inactive) in assay [4]; 12.8 µM (inactive) in assay [5]; 4.4 µM (inactive) in [6]. Further, the GI50 in [7] was 6.11 µM (inactive); in assay [8] it was 2.74 µM (inactive); in assay [9], 3.67 µM (inactive); in assay [10], 6.1 µM (inactive); in assay [11] it was 6.17 µM (inactive); in [12] it was 5.58 µM (inactive). Besides, the GI50 in assay [13] is 3.03 µM (inactive); in [14], 7.26 µM (inactive); in assay [15], 2.39 µM (inactive); in [16], 0.703 µM (active).
For the compound `O=C(Nc1ccc(S(=O)(=O)Nc2ncccn2)cc1)c1c2ccccc2nc2ccccc12`, the GI50 in assay [1], in [2], in assay [3], in assay [4], in assay [17] and in assay [5] was > 100 µM (inactive) in each case. Moreover, the GI50 in assay [6] is > 100 µM (inactive); in [7] it was < 0.01 µM (active); in [8], > 100 µM (inactive); in assay [9] it was > 100 µM (inactive); in [10], > 100 µM (inactive); in assay [11], > 100 µM (inactive). The GI50 in assay [18], in assay [12], in assay [19], in assay [14], in assay [15] and in assay [16] was > 100 µM (inactive) throughout.
On to `C=C(Cl)/C(=C\Br)CCC(Cl)C(C)C.C=C(Cl)/C(=C\Cl)CCC(Cl)C(C)C` (configuration not stated), for which the GI50 in [1] was 20.5 µM (inactive); in [2], 15.3 µM (inactive); in assay [3], 18.8 µM (inactive); in assay [4] it was 14.6 µM (inactive); in assay [17], 13.6 µM (inactive); in assay [5], 17.8 µM (inactive). Also, the GI50 was 16.8 µM (inactive) in [6]; 23.4 µM (inactive) in assay [7]; 16.3 µM (inactive) in [8]; 14.3 µM (inactive) in assay [9]; 19.8 µM (inactive) in assay [10]; 16.5 µM (inactive) in assay [11]. The GI50 in assay [12] was 17.2 µM (inactive); in assay [19] it was 14.7 µM (inactive); in [13], 11.3 µM (inactive); in assay [14], 15 µM (inactive); in assay [15] it was 15 µM (inactive); in assay [16], 19.8 µM (inactive).
Regarding `COc1ccc2c3c1O[C@H]1[C@@H](O)CC[C@@]4(O)[C@@H](C2)N(C)CC[C@]314`, the GI50 in assay [1], in [2], in assay [3], in assay [4], in [17] and in [5] was > 100 µM (inactive) in each case. Besides, the GI50 in assay [6], in [7], in assay [8], in assay [9], in assay [10] and in assay [11] was > 100 µM (inactive) each time. Also, the GI50 in assay [18], in assay [12], in [19], in [14], in [15] and in assay [16] was > 100 µM (inactive) each time.
Regarding `CC(C)CC1[C@@H](OCc2ccccc2)COS(=O)(=O)N1Cc1ccccc1` (some centres not stated), the GI50 is > 100 µM (inactive) in [1]; > 100 µM (inactive) in [2]; 27.6 µM (inactive) in assay [3]; 20.7 µM (inactive) in [4]; > 100 µM (inactive) in assay [17]; > 100 µM (inactive) in assay [5]. The GI50 in assay [6] is > 100 µM (inactive); in assay [7], 86.7 µM (inactive); in [8], > 100 µM (inactive); in assay [9], 20.7 µM (inactive); in assay [10], > 100 µM (inactive); in assay [11], > 100 µM (inactive). For the same compound, the GI50 is 31.9 µM (inactive) in [18]; > 100 µM (inactive) in [12]; 81.7 µM (inactive) in assay [19]; > 100 µM (inactive) in [14]; > 10 µM (inactive) in assay [15]; 65.5 µM (inactive) in assay [16].
Consider `Cc1ccc(-c2cc(-c3ccc(Cl)cc3)nc(/N=C3\C(=O)N(CN4CCOCC4)c4ccccc43)n2)cc1`, for which the GI50 in assay [1] was 21.6 µM (inactive); in [2] it was 21.4 µM (inactive); in assay [3], 40.9 µM (inactive); in assay [4], 18.8 µM (inactive); in assay [17], 18.3 µM (inactive); in assay [5], 32 µM (inactive). Further, the GI50 was 23.3 µM (inactive) in [6]; 35.6 µM (inactive) in assay [7]; 28.7 µM (inactive) in assay [8]; 22.4 µM (inactive) in [9]; 31 µM (inactive) in [10]; 33.3 µM (inactive) in assay [11]. The GI50 in [12] was 30.8 µM (inactive); in [19], 15.2 µM (inactive); in assay [13], 16.4 µM (inactive); in assay [14], 22.5 µM (inactive); in assay [15], 18.5 µM (inactive); in assay [16] it was 26.5 µM (inactive).
As for `Oc1c(N2CCOCC2)cc(-c2cc(N3CCOCC3)c(O)c3ccccc23)c2ccccc12`, the GI50 in assay [1] is 2.86 µM (inactive); in [2] it was 1.63 µM (inactive); in assay [3], 1.71 µM (inactive); in assay [4] it was 2.28 µM (inactive); in assay [17], 2.65 µM (inactive); in assay [5] it was 2.69 µM (inactive). For the same compound, the GI50 in assay [6] is 2.93 µM (inactive); in assay [7], 10.1 µM (inactive); in [8], 1.93 µM (inactive); in [9] it was 6.05 µM (inactive); in assay [10], 12.9 µM (inactive); in [11] it was 1.24 µM (inactive). For the same compound, the GI50 was 1.58 µM (inactive) in [12]; 2.4 µM (inactive) in assay [19]; 1.56 µM (inactive) in assay [13]; 0.389 µM (active) in assay [15]; 2.64 µM (inactive) in assay [16].
Consider `CC(=O)C(C(C)=O)[C@H]1OC(C)(C)O[C@H]1[C@H]1COC(C)(C)O1`, for which the GI50 was > 100 µM (inactive) in [1]; 51.3 µM (inactive) in assay [2]; 29.2 µM (inactive) in assay [3]; 30.8 µM (inactive) in assay [4]; 22.6 µM (inactive) in assay [17]; 73.6 µM (inactive) in assay [5]. Besides, the GI50 in [6] was 57.5 µM (inactive); in [8], 40.6 µM (inactive); in [9], 35.7 µM (inactive); in assay [10], > 100 µM (inactive); in assay [11], 28.6 µM (inactive); in [12], 29.6 µM (inactive). The GI50 is 53.5 µM (inactive) in assay [19]; 36.2 µM (inactive) in assay [13]; 80 µM (inactive) in assay [14]; 55.3 µM (inactive) in assay [15]; 24.5 µM (inactive) in [16].
Consider `C/C(=C\[Si](C)(C)c1ccco1)C(C)(O)[C@H](C)O` (some centres not stated), for which the GI50 in assay [1] is > 100 µM (inactive); in assay [2] it was 44.9 µM (inactive); in [3], 49.4 µM (inactive); in assay [4] it was 30.2 µM (inactive); in assay [17], 91.6 µM (inactive); in [5], > 100 µM (inactive). Moreover, the GI50 in assay [6] is 95.3 µM (inactive); in assay [7] it was 64.9 µM (inactive); in assay [8], 2.9 µM (inactive); in [9] it was 40.6 µM (inactive); in [10], 97.3 µM (inactive); in assay [11] it was > 100 µM (inactive). The GI50 in assay [18] was 30.8 µM (inactive); in [12] it was 32.7 µM (inactive); in assay [19], > 100 µM (inactive); in assay [14], 46.1 µM (inactive); in assay [15], 54.6 µM (inactive); in [16], 38.9 µM (inactive).
As to `C[C@]12CC[C@H](OC3OC(CO)C(O)C(O)C3O)C[C@H]1CC[C@@H]1[C@@H]2CC[C@]2(C)[C@@H](C3=CCOC3=O)CC[C@]12O` (some centres not stated) [ACTODIGIN], the GI50 in [1] was > 50 µM (inactive); in assay [2], > 100 µM (inactive); in assay [3], 1.45 µM (inactive); in assay [4], 15.8 µM (inactive); in [17] it was 30.9 µM (inactive); in [6], 14.5 µM (inactive). For the same compound, the GI50 in [8] was 41 µM (inactive); in assay [9], 19.2 µM (inactive); in assay [10] it was > 100 µM (inactive); in assay [11], > 100 µM (inactive); in assay [12] it was 20.1 µM (inactive); in assay [19], 28.4 µM (inactive). Also, the GI50 is 8.49 µM (inactive) in assay [13], 2.24 µM (inactive) in assay [14], > 100 µM (inactive) in [15] and > 100 µM (inactive) in assay [16].
Regarding `C#C[C@]1(O)CC[C@H]2[C@@H]3CCC4=C/C(=N/OCCN(C)C)CC[C@]4(C)[C@H]3CC[C@@]21C`, the GI50 in assay [1] was 56.8 µM (inactive); in assay [2], 29.2 µM (inactive); in [3], 6.97 µM (inactive); in assay [4], 36.1 µM (inactive); in [17], 31.7 µM (inactive); in assay [5] it was 78 µM (inactive). The GI50 in [6] was 54.7 µM (inactive); in assay [7] it was 27.3 µM (inactive); in [8] it was > 100 µM (inactive); in assay [9], 52 µM (inactive); in assay [10], > 100 µM (inactive); in assay [11] it was 39.9 µM (inactive). Also, the GI50 in assay [18] is 28.4 µM (inactive); in assay [12] it was 44.3 µM (inactive); in [19], 50.7 µM (inactive); in assay [14] it was 52.8 µM (inactive); in [15] it was 11.1 µM (inactive); in [16] it was 27.7 µM (inactive).
